{"source": "PubChem BioAssay AID1259407", "about": "(Chemical Carcinogenesis Research Information System (CCRIS), 2018)", "test_system": "CCRIS mutagenicity, Ames/micronucleus/aberration tests", "assay": "CCRIS mutagenicity studies", "key": {"[1]": {"conditions": "Test System: AMES SALMONELLA TYPHIMURIUM, Strain/Indicator: TA98, Metabolic Activation: NONE, Method: STANDARD PLATE"}, "[2]": {"conditions": "Test System: AMES SALMONELLA TYPHIMURIUM, Strain/Indicator: TA98, Metabolic Activation: RAT, LIVER, S-9, AROCLOR 1254, Method: STANDARD PLATE"}, "[3]": {"conditions": "Test System: AMES SALMONELLA TYPHIMURIUM, Strain/Indicator: TA100, Metabolic Activation: NONE, Method: PREINCUBATION"}, "[4]": {"conditions": "Test System: AMES SALMONELLA TYPHIMURIUM, Strain/Indicator: TA100, Metabolic Activation: NONE, Method: STANDARD PLATE"}, "[5]": {"conditions": "Test System: AMES SALMONELLA TYPHIMURIUM, Strain/Indicator: TA100, Metabolic Activation: RAT, LIVER, S-9, AROCLOR 1254, Method: STANDARD PLATE"}, "[6]": {"conditions": "Test System: AMES SALMONELLA TYPHIMURIUM, Strain/Indicator: TA1535, Metabolic Activation: NONE, Method: STANDARD PLATE"}, "[7]": {"conditions": "Test System: AMES SALMONELLA TYPHIMURIUM, Strain/Indicator: TA1535, Metabolic Activation: RAT, LIVER, S-9, AROCLOR 1254, Method: STANDARD PLATE"}, "[8]": {"conditions": "Test System: AMES SALMONELLA TYPHIMURIUM, Strain/Indicator: TA1537, Metabolic Activation: NONE, Method: STANDARD PLATE"}, "[9]": {"conditions": "Test System: AMES SALMONELLA TYPHIMURIUM, Strain/Indicator: TA1537, Metabolic Activation: RAT, LIVER, S-9, AROCLOR 1254, Method: STANDARD PLATE"}, "[10]": {"conditions": "Test System: AMES SALMONELLA TYPHIMURIUM, Strain/Indicator: TA1538, Metabolic Activation: NONE, Method: STANDARD PLATE"}, "[11]": {"conditions": "Test System: AMES SALMONELLA TYPHIMURIUM, Strain/Indicator: TA1538, Metabolic Activation: RAT, LIVER, S-9, AROCLOR 1254, Method: STANDARD PLATE"}, "[12]": {"conditions": "Test System: MOUSE LYMPHOMA, Strain/Indicator: L5178Y (TK+/TK-), Metabolic Activation: NONE, Method: SUSPENSION/PLATE"}, "[13]": {"conditions": "Test System: MOUSE LYMPHOMA, Strain/Indicator: L5178Y (TK+/TK-), Metabolic Activation: RAT, LIVER, S-9, AROCLOR 1254, Method: SUSPENSION/PLATE"}}, "note": "Active and inactive are the calls of the source. No rule for the calls is given here.", "data": [{"compound": "Nc1ccc(O)c([N+](=O)[O-])c1", "values": [{"measurement": "mutagenic call", "setting": "Test System: AMES SALMONELLA TYPHIMURIUM, Strain/Indicator: TA97, Metabolic Activation: HAMSTER, LIVER, S-9, AROCLOR 1254 (10%), Method: PREINCUBATION", "result": "inactive; negative"}, {"measurement": "mutagenic call", "setting": "Test System: AMES SALMONELLA TYPHIMURIUM, Strain/Indicator: TA97, Metabolic Activation: NONE, Method: PREINCUBATION", "result": "inactive; negative"}, {"measurement": "mutagenic call", "setting": "Test System: AMES SALMONELLA TYPHIMURIUM, Strain/Indicator: TA97, Metabolic Activation: RAT, LIVER, S-9, AROCLOR 1254 (10%), Method: PREINCUBATION", "result": "inactive; negative"}, {"measurement": "mutagenic call", "setting": "Test System: AMES SALMONELLA TYPHIMURIUM, Strain/Indicator: TA98, Metabolic Activation: HAMSTER, LIVER, S-9, AROCLOR 1254 (10%), Method: PREINCUBATION", "result": "inactive; negative"}, {"measurement": "mutagenic call", "setting": "Test System: AMES SALMONELLA TYPHIMURIUM, Strain/Indicator: TA98, Metabolic Activation: NONE, Method: PREINCUBATION", "result": "active; positive"}, {"measurement": "mutagenic call", "setting": "[1]", "result": "inactive; negative"}, {"measurement": "mutagenic call", "setting": "Test System: AMES SALMONELLA TYPHIMURIUM, Strain/Indicator: TA98, Metabolic Activation: RAT, LIVER, S-9, AROCLOR 1254 (10%), Method: PREINCUBATION", "result": "inactive; negative"}, {"measurement": "mutagenic call", "setting": "[2]", "result": "inactive; negative"}, {"measurement": "mutagenic call", "setting": "Test System: AMES SALMONELLA TYPHIMURIUM, Strain/Indicator: TA100, Metabolic Activation: HAMSTER, LIVER, S-9, AROCLOR 1254 (10%), Method: PREINCUBATION", "result": "inactive; negative"}, {"measurement": "mutagenic call", "setting": "[3]", "result": "inactive; negative"}, {"measurement": "mutagenic call", "setting": "[4]", "result": "inactive; negative"}, {"measurement": "mutagenic call", "setting": "Test System: AMES SALMONELLA TYPHIMURIUM, Strain/Indicator: TA100, Metabolic Activation: RAT, LIVER, S-9, AROCLOR 1254 (10%), Method: PREINCUBATION", "result": "inactive; negative"}, {"measurement": "mutagenic call", "setting": "[5]", "result": "inactive; negative"}, {"measurement": "mutagenic call", "setting": "Test System: AMES SALMONELLA TYPHIMURIUM, Strain/Indicator: TA1535, Metabolic Activation: HAMSTER, LIVER, S-9, AROCLOR 1254 (10%), Method: PREINCUBATION", "result": "inactive; negative"}, {"measurement": "mutagenic call", "setting": "Test System: AMES SALMONELLA TYPHIMURIUM, Strain/Indicator: TA1535, Metabolic Activation: NONE, Method: PREINCUBATION", "result": "inactive; negative"}, {"measurement": "mutagenic call", "setting": "[6]", "result": "inactive; negative"}, {"measurement": "mutagenic call", "setting": "Test System: AMES SALMONELLA TYPHIMURIUM, Strain/Indicator: TA1535, Metabolic Activation: RAT, LIVER, S-9, AROCLOR 1254 (10%), Method: PREINCUBATION", "result": "inactive; negative"}, {"measurement": "mutagenic call", "setting": "[7]", "result": "inactive; negative"}, {"measurement": "mutagenic call", "setting": "[8]", "result": "inactive; negative"}, {"measurement": "mutagenic call", "setting": "[9]", "result": "inactive; negative"}, {"measurement": "mutagenic call", "setting": "[10]", "result": "inactive; negative"}, {"measurement": "mutagenic call", "setting": "[11]", "result": "inactive; negative"}, {"measurement": "mutagenic call", "setting": "Test System: E. COLI, Strain/Indicator: WP2 UVRA, Metabolic Activation: HAMSTER, LIVER, S-9, AROCLOR 1254, Method: STANDARD PLATE", "result": "inactive; negative"}, {"measurement": "mutagenic call", "setting": "Test System: E. COLI, Strain/Indicator: WP2 UVRA, Metabolic Activation: HAMSTER, LIVER, S-9, Method: STANDARD PLATE", "result": "inactive; negative"}, {"measurement": "mutagenic call", "setting": "Test System: E. COLI, Strain/Indicator: WP2 UVRA, Metabolic Activation: MOUSE, LIVER, S-9, AROCLOR 1254, Method: STANDARD PLATE", "result": "inactive; negative"}, {"measurement": "mutagenic call", "setting": "Test System: E. COLI, Strain/Indicator: WP2 UVRA, Metabolic Activation: MOUSE, LIVER, S-9, Method: STANDARD PLATE", "result": "inactive; negative"}, {"measurement": "mutagenic call", "setting": "Test System: E. COLI, Strain/Indicator: WP2 UVRA, Metabolic Activation: NONE, Method: STANDARD PLATE", "result": "inactive; negative"}, {"measurement": "mutagenic call", "setting": "Test System: E. COLI, Strain/Indicator: WP2 UVRA, Metabolic Activation: RAT, LIVER, S-9, AROCLOR 1254, Method: STANDARD PLATE", "result": "inactive; negative"}, {"measurement": "mutagenic call", "setting": "Test System: E. COLI, Strain/Indicator: WP2 UVRA, Metabolic Activation: RAT, LIVER, S-9, Method: STANDARD PLATE", "result": "inactive; negative"}, {"measurement": "mutagenic call", "setting": "[12]", "result": "active; positive"}, {"measurement": "mutagenic call", "setting": "[13]", "result": "active; positive"}]}, {"compound": "ClC(Cl)=C(Cl)/C(Cl)=C(\\Cl)SCc1ccccc1", "values": [{"measurement": "mutagenic call", "setting": "[3]", "result": "inactive; negative"}, {"measurement": "mutagenic call", "setting": "Test System: AMES SALMONELLA TYPHIMURIUM, Strain/Indicator: TA100, Metabolic Activation: RAT, LIVER, S-9, AROCLOR 1254, Method: PREINCUBATION", "result": "active; positive"}]}, {"compound": "Cc1cc(C)c(S(=O)(=O)O)cc1N=Nc1cc(S(=O)(=O)O)c2ccccc2c1O", "values": [{"measurement": "mutagenic call", "setting": "Test System: AMES SALMONELLA TYPHIMURIUM, Strain/Indicator: TA98, Metabolic Activation: HAMSTER, LIVER, S-9, AROCLOR 1254, Method: STANDARD PLATE", "result": "inactive; negative"}, {"measurement": "mutagenic call", "setting": "[1]", "result": "inactive; negative"}, {"measurement": "mutagenic call", "setting": "Test System: AMES SALMONELLA TYPHIMURIUM, Strain/Indicator: TA98, Metabolic Activation: RAT LIVER S-9, AROCLOR 1254, Method: STANDARD PLATE", "result": "inactive; negative"}, {"measurement": "mutagenic call", "setting": "[2]", "result": "inactive; negative"}, {"measurement": "mutagenic call", "setting": "Test System: AMES SALMONELLA TYPHIMURIUM, Strain/Indicator: TA100, Metabolic Activation: HAMSTER, LIVER, S-9, AROCLOR 1254, Method: STANDARD PLATE", "result": "inactive; negative"}, {"measurement": "mutagenic call", "setting": "[4]", "result": "inactive; negative"}, {"measurement": "mutagenic call", "setting": "Test System: AMES SALMONELLA TYPHIMURIUM, Strain/Indicator: TA100, Metabolic Activation: RAT LIVER S-9, AROCLOR 1254, Method: STANDARD PLATE", "result": "inactive; negative"}, {"measurement": "mutagenic call", "setting": "[5]", "result": "inactive; negative"}, {"measurement": "mutagenic call", "setting": "Test System: AMES SALMONELLA TYPHIMURIUM, Strain/Indicator: TA1535, Metabolic Activation: HAMSTER, LIVER, S-9, AROCLOR 1254, Method: STANDARD PLATE", "result": "inactive; negative"}, {"measurement": "mutagenic call", "setting": "[6]", "result": "inactive; negative"}, {"measurement": "mutagenic call", "setting": "[7]", "result": "inactive; negative"}, {"measurement": "mutagenic call", "setting": "Test System: AMES SALMONELLA TYPHIMURIUM, Strain/Indicator: TA1537, Metabolic Activation: HAMSTER, LIVER, S-9, AROCLOR 1254, Method: STANDARD PLATE", "result": "inactive; negative"}, {"measurement": "mutagenic call", "setting": "[8]", "result": "inactive; negative"}, {"measurement": "mutagenic call", "setting": "[9]", "result": "inactive; negative"}, {"measurement": "mutagenic call", "setting": "Test System: AMES SALMONELLA TYPHIMURIUM, Strain/Indicator: TA1538, Metabolic Activation: HAMSTER, LIVER, S-9, AROCLOR 1254 (2.5-20%), Method: PREINCUBATION", "result": "inactive; negative"}, {"measurement": "mutagenic call", "setting": "Test System: AMES SALMONELLA TYPHIMURIUM, Strain/Indicator: TA1538, Metabolic Activation: HAMSTER, LIVER, S-9, AROCLOR 1254, Method: STANDARD PLATE", "result": "inactive; negative"}, {"measurement": "mutagenic call", "setting": "[10]", "result": "inactive; negative"}, {"measurement": "mutagenic call", "setting": "[11]", "result": "inactive; negative"}, {"measurement": "mutagenic call", "setting": "[12]", "result": "inactive; negative. reevaluation of results: negative"}, {"measurement": "mutagenic call", "setting": "[13]", "result": "inactive; negative. reevaluation of results: negative"}]}, {"compound": "CCCCCC/C=C\\CCCCCCOC(C)=O", "values": [{"measurement": "mutagenic call", "setting": "[1]", "result": "inactive; negative"}, {"measurement": "mutagenic call", "setting": "Test System: AMES SALMONELLA TYPHIMURIUM, Strain/Indicator: TA98, Metabolic Activation: RAT, LIVER, S-9, Method: STANDARD PLATE", "result": "inactive; negative"}, {"measurement": "mutagenic call", "setting": "[4]", "result": "inactive; negative"}, {"measurement": "mutagenic call", "setting": "Test System: AMES SALMONELLA TYPHIMURIUM, Strain/Indicator: TA100, Metabolic Activation: RAT, LIVER, S-9, Method: STANDARD PLATE", "result": "inactive; negative"}, {"measurement": "mutagenic call", "setting": "Test System: AMES SALMONELLA TYPHIMURIUM, Strain/Indicator: TA102, Metabolic Activation: NONE, Method: STANDARD PLATE", "result": "inactive; negative"}, {"measurement": "mutagenic call", "setting": "Test System: AMES SALMONELLA TYPHIMURIUM, Strain/Indicator: TA102, Metabolic Activation: RAT, LIVER, S-9, Method: STANDARD PLATE", "result": "inactive; negative"}]}]}
